# Patent publication US5434186A, “Carboxylic acid leukotriene B4 antagonists” (Hoffmann-La Roche Inc., priority 1993, dated 1995)
# Assays:
# [1] = tested on: LTB4 -induced bronchoconstriction; assay: Guinea Pig Bronchoconstriction In Vivo (LTB4-induced); design: species or system guinea pig (Hartley strain); conditions: Cavia porcellus, iv, i.v. five minutes prior to LTB4 (1 μg/kg i.v.), read-out: ID50 (mg/kg), i.v., LTB4-induced bronchoconstriction
# Procedure: Male guinea pigs (Hartley strain) weighing 300 to 500 g are anesthetized with urethane (2 g/kg) intraperitoneally and a polyethylene cannula is inserted into the jugular vein for drug administration. Tracheal pressure is recorded from a cannula inserted into the trachea and connected to a Gould P23ID pressure transducer. After surgical preparation of the animals, a period of time is allowed for pulmonary functions to stabilize. The test compound is administered intravenously five minutes prior to leukotriene B4 administration according to the following protocol: Animals are paralyzed with succinylcholine (1.2 mg/kg i.v.) and mechanically respirated (Harvard rodent respirator) at 40 breaths/minute and 2.5 cc tidal volume. Propranolol (0.1 mg/kg) is then administered intravenously one minute prior to leukotriene B4 administration. Animals are then challenged with an intermediate constrictory dose of leukotriene B4 (1 μg/kg) delivered intravenously.
# The change (cm H2 O) between pre and peak ventilatory pressure readings is averaged for five control and five drug treated animals. The percent inhibition is calculated from the formula:
# ((Control-Drug Treated)/Control)×100
# When representative compounds of formula I of the invention were utilized as the test compounds the following results were obtained: […]
# LTB4 Receptor = biological target: T1, LTB4 Receptor (Homo sapiens, UniProt Q15722); assay: LTB4 Receptor Binding Assay (inhibition of 3H-LTB4 binding, human neutrophils); conditions: 0.5 nM 3H-LTB4, 45 minutes on ice, isolated human neutrophils
# T1 construct: Isolated human neutrophils in Gey's salt solution; endogenous in cells; host or cells: human neutrophils isolated from blood (90-95% neutrophils)
# Procedure: Binding assays can be performed in microtiter wells. Isolated human neutrophils in Gey's salt solution are incubated on ice for 45 minutes with 0.5 nM ^3 H-LTB4 in the presence or absence of test compounds. Assays are terminated by adding 12 ml ice cold 50 mM Tris (pH 7.4) followed by rapid filtration under vacuum through GF/C filters. Radioactivity is determined by scintillation counting. Non specific binding is defined as the binding not displaced by 100 fold excess of unlabelled LTB4. Specific binding is defined as the difference between total binding and non-specific binding. Non linear analysis of the binding data is performed using LIGAND (Munson and Rodbard, 1980). Ki (Inhibition Constant) values were determined using the Cheng-Prusoff relationship (Cheng and Prusoff, 1973).
# Human neutrophils are prepared from citrated or heparinized blood. The blood was diluted 1:1 with Hank's balanced salt solution (HBSS) minus calcium and magnesium and underlayed with 10 ml lymphocyte separation medium (Organon Teknika), followed by centrifugation at 500× g for 30 min., at room temperature. Supernatants are removed down to the red blood cell pellet. HBSS minus calcium and magnesium are added to give 25 ml. To this are added 25 ml 6% dextran in 0.85% NaCl. Samples are mixed and allowed to stand 20 min at room temperature. Supernatants are removed and centrifuged at 500× g for 5 min at 4° C. Pellets are resuspended with 20 ml 0.2% saline for 20 sec followed by the addition of 20 ml 1.6% saline. Samples are centrifuged at 500× g for 5 min at 4° C. The lysis is repeated and the cells (90-95% neutrophils) are resuspended at 2× 10^6 cell/ml in GEY's salt solution.
# T1 sequence (Q15722 whole entry): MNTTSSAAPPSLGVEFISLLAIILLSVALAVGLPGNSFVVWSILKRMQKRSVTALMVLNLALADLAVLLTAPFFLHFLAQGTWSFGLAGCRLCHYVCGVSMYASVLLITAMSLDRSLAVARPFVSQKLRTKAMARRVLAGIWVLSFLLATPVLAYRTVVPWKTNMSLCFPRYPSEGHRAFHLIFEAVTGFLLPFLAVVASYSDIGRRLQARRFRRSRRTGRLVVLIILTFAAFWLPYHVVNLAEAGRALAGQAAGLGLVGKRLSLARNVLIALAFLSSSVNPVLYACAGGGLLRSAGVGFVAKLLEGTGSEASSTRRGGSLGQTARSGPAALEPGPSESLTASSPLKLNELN
Structure (SMILES),ED50 [1],Ki (LTB4 Receptor)
"CCCc1c(OCCCCCCc2cccc(OCCCCCCCCC(=O)O)c2CCC(=O)O)ccc2c1OCCC2=O [Example 188, 2-[(8-Carboxyoctyl)oxy]-6-[6-[(3,4-dihydro-4-oxo-8-propyl-2H-1-benzopyran-7-yl)oxy]hexyl]benzenepropanoic Acid]",0.9 mg/kg,–
"CCCc1c(OCCCCCOc2ccc(OCCCC(=O)O)cc2CCC(=O)O)ccc2c1OCCC2=O [Example 47, 5-(3-Carboxypropoxy)-2-[5-[(3,4-dihydro-4-oxo-8-propyl-2H-1-benzopyran-7-yl)oxy]pentyloxy]benzenepropanoic Acid]",3.66 mg/kg,3 nM
"CCCc1c(OCCCCCOc2ccc(C(=O)c3ccc(C(=O)O)cc3)cc2CCC(=O)O)ccc2c1OCCC2=O [Example 85, 5-[(4-Carboxyphenyl)carbonyl]-2-[5-[(3,4-dihydro-4-oxo-8-propyl-2H-1-benzopyran-7-yl)oxy]pentyloxy]benzenepropanoic Acid]",6.23 mg/kg,3 nM
"CCCc1c(OCCCCCCc2cccc(OCCCCCC(=O)O)c2CCC(=O)O)ccc2c1CCCC2=O [Example 206, 2-[(5-Carboxypentyl)oxy]-6-[6-[(5,6,7,8-tetrahydro-5-oxo-1-propyl-2-naphthalenyl)oxy]hexyl]benzenepropanoic Acid]",0.12 mg/kg,–
"CCCc1c(OCc2cccc(COc3ccccc3CCC(=O)O)c2)ccc2c1OCCC2=O [Example 39, 2-[3-[[(3,4-Dihydro-4-oxo-8-propyl-2H-1-benzopyran-7-yl)oxy]methyl]phenylmethoxy]benzenepropanoic Acid]",5.4 mg/kg,100 nM
"CCCc1c(OCCCCCOc2ccc3nc(CCC(=O)O)ccc3c2CCC(=O)O)ccc2c1OCCC2=O [Example 238, 6-[[5-[(3,4-Dihydro-4-oxo-8-propyl-2H-1-benzopyran-7-yl)oxy]pentyl]oxy]-2,5-quinolinedipropanoic Acid]",1.24 mg/kg,2 nM
"CCCc1c(OCCCCCOc2ccccc2CCC(=O)O)ccc2c1CCCC2=O [Example 10, 2-[[5-(5-Oxo-1-propyl-5,6,7,8-tetrahydro-2-naphthalenyl)oxy]pentyloxy]benzenepropanoic Acid]",2.08 mg/kg,–
"CCCc1c(OCCCCCCc2ccc(C(=O)CCCC(=O)O)cc2CCC(=O)O)ccc2c1OCCC2=O [Example 211, 3-(2-Carboxyethyl)-4-[6-[(3,4-dihydro-4-oxo-8-propyl-2H-1-benzopyran-7-yl)oxy]hexyl]-δ-oxobenzenepentanoic Acid]",2.39 mg/kg,0.8 nM
"CCCc1c(OCCCCCCc2cccc(OCCCCCCCC(=O)O)c2CCC(=O)O)ccc2c1OCCC2=O [Example 184, 2-[(7-Carboxyheptyl)oxy]-6-[6-[(3,4-dihydro-4-oxo-8-propyl-2H-1-benzopyran-7-yl)oxy]hexyl]benzenepropanoic Acid]",0.17 mg/kg,–
"CCCc1c(OCCCCCOc2ccc(C(C)=O)cc2CCC(=O)O)ccc2c1OCCC2=O [Example 33, 5-Acetyl-2-[5-[(3,4-dihydro-4-oxo-8-propyl-2H-1-benzopyran-7-yl)oxy]pentyloxy]benzenepropanoic Acid]",1.8 mg/kg,10 nM
"CCCc1c(OCCCCCOc2ccc3cc(OCC(=O)O)ccc3c2CCC(=O)O)ccc2c1OCCC2=O [Example 231, 6-(Carboxymethoxy)-2-[[5-[(3,4-dihydro-4-oxo-8-propyl-2H-1-benzopyran-7-yl)oxy]pentyl]oxy]-1-naphthalenepropanoic Acid]",1.36 mg/kg,0.8 nM
"CCCc1c(OCCCCCOc2ccc3ccc(OCC(=O)O)cc3c2CCC(=O)O)ccc2c1OCCC2=O [Example 226, 7-(Carboxymethoxy)-2-[[5-[(3,4-dihydro-4-oxo-8-propyl-2H-1-benzopyran-7-yl)oxy]pentyl]oxy]-1-naphthalenepropanoic Acid]",4.4 mg/kg,1 nM
"CCCc1c(OCCCCCCc2cccc(OCCCC(=O)O)c2CCC(=O)O)ccc2c1OCCC2=O [Example 205, 2-(3-Carboxypropoxy)-6-[6-[(3,4-dihydro-4-oxo-8-propyl-2H-1-benzopyran-7-yl)oxy]hexyl]benzenepropanoic Acid]",0.26 mg/kg,–
